Data taken from patent US11020398B2, “Amino-pyrrolopyrimidinone compounds and methods of use thereof” (ArQule, Inc., priority 2016, dated 2021).

Experiments:
Format in all cases: biochemical
[1] = target: phosphorylated form of full length BTK (active BTK) (Homo sapiens (Human), UniProt Q06187); assay: Mobility shift assay (MSA, Caliper LabChip), active BTK assay; details: Assay type B (MSA using active BTK)
Experimental: The active BTK assay consists of phosphorylated form of full length BTK. […] The enzyme inhibitor complexes is incubated, before the kinase activation reaction is initiated.
Mobility Shift Assay (MSA)
The active BTK assay consisted of phosphorylated form of full length BTK. […] The enzyme inhibitor complexes was incubated for 30 minutes at the room temperature and the kinase activation reaction was initiated by the addition of 1 μM Srctide peptide substrate and […].

[2] = target: full-length activated BTK (wildtype) (Homo sapiens (Human), UniProt Q06187); assay: AlphaScreen assay, wild-type BTK
[3] = target: full-length activated BTK mutant C481S (Homo sapiens (Human), UniProt Q06187, C481S); assay: AlphaScreen assay, BTK mutant C481S
Chain of full-length activated BTK mutant C481S (Q06187 whole entry C481S): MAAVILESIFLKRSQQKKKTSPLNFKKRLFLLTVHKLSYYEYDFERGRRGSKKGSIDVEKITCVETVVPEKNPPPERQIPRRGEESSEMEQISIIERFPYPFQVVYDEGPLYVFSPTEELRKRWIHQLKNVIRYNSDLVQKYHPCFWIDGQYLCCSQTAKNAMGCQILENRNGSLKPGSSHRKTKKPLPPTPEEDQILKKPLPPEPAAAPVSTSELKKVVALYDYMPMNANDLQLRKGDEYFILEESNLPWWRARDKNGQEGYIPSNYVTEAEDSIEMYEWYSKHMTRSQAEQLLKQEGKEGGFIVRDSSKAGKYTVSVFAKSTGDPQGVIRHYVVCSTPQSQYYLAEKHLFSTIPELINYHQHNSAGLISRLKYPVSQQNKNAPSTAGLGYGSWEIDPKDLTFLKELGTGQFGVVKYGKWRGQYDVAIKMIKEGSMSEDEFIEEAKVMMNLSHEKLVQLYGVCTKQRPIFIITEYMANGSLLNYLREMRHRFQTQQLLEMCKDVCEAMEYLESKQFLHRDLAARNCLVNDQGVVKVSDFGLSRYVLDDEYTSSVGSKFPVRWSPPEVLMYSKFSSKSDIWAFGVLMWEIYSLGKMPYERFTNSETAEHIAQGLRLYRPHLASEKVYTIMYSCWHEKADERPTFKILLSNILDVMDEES

Chain of full-length activated BTK (wildtype) (Q06187 whole entry): as the sequence (Q06187 whole entry C481S) above, with S481C counted along it
Chain of phosphorylated form of full length BTK (active BTK) (Q06187 whole entry): as the sequence (Q06187 whole entry C481S) above, with S481C counted along it

Row | IC50 [1] [nM] | IC50 [2] [nM] | IC50 [3] [nM] | SMILES
1 | 3.2 | – | – | C[C@@H](O)C(=O)NC[C@@H]1CC[C@@H](Nc2ncnc3[nH]cc(C(=O)c4ccc(Oc5ccccc5)cc4)c23)CO1 [Compound I-217, (R)-2-hydroxy-N-(((2S,5R)-5-((5-(4-phenoxybenzoyl)-7H-pyrrolo[2,3-d]pyrimidin-4-yl)amino)tetrahydro-2H-pyran-2-yl)methyl)propanamide]
2 | 4.4 | – | – | CC(=O)NC[C@@H]1CC[C@@H](Nc2ncnc3[nH]cc(C(=O)c4ccccc4Cl)c23)CO1 [Compound I-118, N-(((2S,5R)-5-((5-(2-chlorobenzoyl)-7H-pyrrolo[2,3-d]pyrimidin-4-yl)amino)tetrahydro-2H-pyran-2-yl)methyl)acetamide]
3 | 3.9 | – | – | C[C@H](NC(=O)[C@@H](C)O)[C@@H]1CC[C@@H](Nc2ncnc3[nH]cc(C(=O)c4ccc(Oc5ccccc5)cc4)c23)CO1 [Compound I-215, (R)-2-hydroxy-N-((S)-1-((2S,5R)-5-((5-(4-phenoxybenzoyl)-7H-pyrrolo[2,3-d]pyrimidin-4-yl)amino)tetrahydro-2H-pyran-2-yl)ethyl)propanamide]
4 | 7.3 | – | – | N[C@H]1CC[C@@H](Nc2ncnc3[nH]cc(C(=O)c4cccc(NS(=O)(=O)c5ccccc5)c4)c23)CC1 [Compound I-121, N-(3-(4-((cis-4-aminocyclohexyl)amino)-7H-pyrrolo[2,3-d]pyrimidine-5-carbonyl)phenyl)benzenesulfonamide]
5 | 4 | – | – | C[C@H](O)C(=O)N[C@@H](C)[C@@H]1CC[C@@H](Nc2ncnc3[nH]cc(C(=O)c4ccc(Oc5ccccc5)cc4)c23)CO1 [Compound I-209, (S)-2-hydroxy-N-((S)-1-((2S,5R)-5-((5-(4-phenoxybenzoyl)-7H-pyrrolo[2,3-d]pyrimidin-4-yl)amino)tetrahydro-2H-pyran-2-yl)ethyl)propanamide]
6 | 1.7 | – | – | CN(C)C[C@]1(O)CC[C@H](Nc2ncnc3[nH]cc(C(=O)c4ccc(Oc5ccccc5)cc4Cl)c23)CC1 [Compound I-177, (2-chloro-4-phenoxyphenyl)(4-((trans-4-((dimethylamino)methyl)-4-hydroxycyclohexyl)amino)-7H-pyrrolo[2,3-d]pyrimidin-5-yl)methanone]
7 | 121 | – | – | CS(=O)(=O)Nc1cccc(C(=O)c2c[nH]c3ncnc(N[C@H]4CC[C@@H](N)CC4)c23)c1 [Compound I-120, N-(3-(4-((cis-4-aminocyclohexyl)amino)-7H-pyrrolo[2,3-d]pyrimidine-5-carbonyl)phenyl)methanesulfonamide]
8 | 37 | – | – | N[C@H]1C[C@H](Nc2ncnc3[nH]cc(C(=O)c4ccc(Oc5ccccc5)cc4)c23)C1 [Compound I-191, (4-((trans-3-aminocyclobutyl)amino)-7H-pyrrolo[2,3-d]pyrimidin-5-yl)(4-phenoxyphenyl)methanone]
9 | 12 | – | – | COC[C@]1(O)CC[C@H](Nc2ncnc3[nH]cc(C(=O)c4ccccc4Cl)c23)CC1 [Compound I-107, (2-chlorophenyl)(4-((trans-4-hydroxy-4-(methoxymethyl)cyclohexyl)amino)-7H-pyrrolo[2,3-d]pyrimidin-5-yl)methanone]
10 | 3.1 | – | – | C[C@@H](O)[C@@H](CO)NC(=O)[C@@H]1CC[C@@H](Nc2ncnc3[nH]cc(C(=O)c4ccc(Oc5ccccc5)cc4)c23)CO1 [Compound I-175, (2S,5R)—N-((2R,3R)-1,3-dihydroxybutan-2-yl)-5-((5-(4-phenoxybenzoyl)-7H-pyrrolo[2,3-d]pyrimidin-4-yl)amino) tetrahydro-2H-pyran-2-carboxamide]
11 | 3 | – | – | CC1(O)CN([C@H]2CC[C@@H](Nc3ncnc4[nH]cc(C(=O)c5ccccc5Cl)c34)CC2)C1 [Compound I-111, (2-chlorophenyl)(4-((cis-4-(3-hydroxy-3-methylazetidin-1-yl)cyclohexyl)amino)-7H-pyrrolo[2,3-d]pyrimidin-5-yl)methanone]
12 | 1.8 | – | – | O=C(c1ccc(Oc2ccccc2)cc1Cl)c1c[nH]c2ncnc(N[C@H]3CC[C@@H](O)[C@@H](O)C3)c12 (racemic) [Compound I-179, rac-(2-chloro-4-phenoxyphenyl)(4-(((1S,3S,4R)-3,4-dihydroxycyclohexyl)amino)-7H-pyrrolo[2,3-d]pyrimidin-5-yl)methanone]
13 | 4.1 | – | – | O=C(c1ccc(Oc2ccccc2)cc1Cl)c1c[nH]c2ncnc(N[C@H]3C[C@H](CO)C3)c12 [Compound I-207, (2-chloro-4-phenoxyphenyl)(4-((trans-3-(hydroxymethyl)cyclobutyl)amino)-7H-pyrrolo[2,3-d]pyrimidin-5-yl)methanone]
14 | 1.5 | – | – | C[C@]1(O)CC[C@H](Nc2ncnc3[nH]cc(C(=O)c4ccc(Oc5ccccc5)cc4Cl)c23)CC1 [Compound I-201, (2-chloro-4-phenoxyphenyl)(4-((trans-4-hydroxy-4-methylcyclohexyl)amino)-7H-pyrrolo[2,3-d]pyrimidin-5-yl)methanone]
15 | 1.6 | – | – | Cc1cc(Oc2ccccc2)ccc1C(=O)c1c[nH]c2ncnc(N[C@@H]3CC[C@@H]([C@@H](C)O)OC3)c12 [Compound I-197, (4-(((3R,6S)-6-((R)-1-hydroxyethyl)tetrahydro-2H-pyran-3-yl)amino)-7H-pyrrolo[2,3-d]pyrimidin-5-yl)(2-methyl-4-phenoxyphenyl)methanone]
16 | 4.2 | – | – | O=C(c1ccc(Oc2ccccc2)cc1)c1c[nH]c2ncnc(N[C@H]3C[C@H](CO)C3)c12 [Compound I-187, (4-((trans-3-(hydroxymethyl)cyclobutyl)amino)-7H-pyrrolo[2,3-d]pyrimidin-5-yl)(4-phenoxyphenyl)methanone]
17 | 1.4 | – | – | CC(C)(O)C(=O)N[C@H]1CC[C@@H](Nc2ncnc3[nH]cc(C(=O)c4ccc(Oc5ccccc5)cc4)c23)CC1 [Compound I-203, 2-hydroxy-2-methyl-N-(cis-4-((5-(4-phenoxybenzoyl)-7H-pyrrolo[2,3-d]pyrimidin-4-yl)amino)cyclohexyl)propanamide]
18 | 2.9 | – | – | CC(O)CCCCC(=O)N[C@H]1CC[C@@H](Nc2ncnc3[nH]cc(C(=O)c4ccc(Oc5ccccc5)cc4Cl)c23)CC1 (mixture of isomers) [Compound I-212, rac-N-(cis-4-((5-(2-chloro-4-phenoxybenzoyl)-7H-pyrrolo[2,3-d]pyrimidin-4-yl)amino)cyclohexyl)-6-hydroxyheptanamide]
19 | 1.7 | – | – | CC(C)(O)[C@@H]1CC[C@@H](Nc2ncnc3[nH]cc(C(=O)c4ccc(Oc5ccccc5)cc4Cl)c23)CO1 [Compound I-188, (2-chloro-4-phenoxyphenyl)(4-(((3R,6S)-6-(2-hydroxypropan-2-yl)tetrahydro-2H-pyran-3-yl)amino)-7H-pyrrolo[2,3-d]pyrimidin-5-yl)methanone]
20 | 2.6 | – | – | CC(=O)N[C@@H](C)[C@@H]1CC[C@@H](Nc2ncnc3[nH]cc(C(=O)c4ccc(Oc5ccccc5)cc4)c23)CO1 [Compound I-198, N-((S)-1-((2S,5R)-5-((5-(4-phenoxybenzoyl)-7H-pyrrolo[2,3-d]pyrimidin-4-yl)amino)tetrahydro-2H-pyran-2-yl)ethyl)acetamide]
21 | 17 | – | – | N[C@@H]1CC[C@@H](Nc2ncnc3[nH]cc(C(=O)c4ccc(Oc5ccccc5)cc4)c23)C1 [Compound I-189, (4-(((1R,3R)-3-aminocyclopentyl)amino)-7H-pyrrolo[2,3-d]pyrimidin-5-yl)(4-phenoxyphenyl)methanone]
22 | 2.5 | – | – | O=C(c1ccc(Oc2ccccc2)cc1)c1c[nH]c2ncnc(N[C@@H]3CC[C@@H](C(=O)NC[C@@H](O)CO)OC3)c12 [Compound I-176, (2S,5R)—N—((R)-2,3-dihydroxypropyl)-5-((5-(4-phenoxybenzoyl)-7H-pyrrolo[2,3-d]pyrimidin-4-yl)amino)tetrahydro-2H-pyran-2-carboxamide]
23 | 5.1 | – | – | CC(=O)NC[C@@H]1CC[C@@H](Nc2ncnc3[nH]cc(C(=O)c4ccccc4C)c23)CO1 [Compound I-119, N-(((2S,5R)-5-((5-(2-methylbenzoyl)-7H-pyrrolo[2,3-d]pyrimidin-4-yl)amino)tetrahydro-2H-pyran-2-yl)methyl)acetamide]
24 | 3.8 | – | – | N[C@H]1CC[C@@H](Nc2ncnc3[nH]cc(C(=O)c4cccc(Oc5ccccc5)c4)c23)CC1 [Compound I-131, (4-((cis-4-aminocyclohexyl)amino)-7H-pyrrolo[2,3-d]pyrimidin-5-yl)(3-phenoxyphenyl)methanone]
25 | – | 181 | 98.4 | O=C(Nc1ccccc1)c1ccc(C(=O)c2c[nH]c3ncnc(N[C@@H]4CC[C@@H](CO)OC4)c23)c(Cl)c1 [Compound I-236, 3-chloro-4-(4-(((3R,6S)-6-(hydroxymethyl)tetrahydro-2H-pyran-3-yl)amino)-7H-pyrrolo[2,3-d]pyrimidine-5-carbonyl)-N-phenylbenzamide]
26 | – | 1440 | 108 | O=C(c1ccc(N2CC3(COC3)C2)cc1Cl)c1c[nH]c2ncnc(N[C@@H]3CC[C@@H](CO)OC3)c12 [Compound I-647, (2-chloro-4-(2-oxa-6-azaspiro[3.3]heptan-6-yl)phenyl)(4-(((3R,6S)-6-(hydroxymethyl)tetrahydro-2H-pyran-3-yl)amino)-7H-pyrrolo[2,3-d]pyrimidin-5-yl)methanone]
27 | – | 731 | 810 | COCCOc1ccc(Cl)c(C(=O)c2c[nH]c3ncnc(N[C@@H]4CC[C@@H](CO)OC4)c23)c1 [Compound I-648, (2-chloro-5-(2-methoxyethoxy)phenyl)(4-(((3R,6S)-6-(hydroxymethyl)tetrahydro-2H-pyran-3-yl)amino)-7H-pyrrolo[2,3-d]pyrimidin-5-yl)methanone]
28 | – | 423 | 714 | COCCOc1ccc(C(=O)c2c[nH]c3ncnc(N[C@@H]4CC[C@@H](CO)OC4)c23)cc1 [Compound I-318i, (4-(((3R,6S)-6-(hydroxymethyl)tetrahydro-2H-pyran-3-yl)amino)-7H-pyrrolo[2,3-d]pyrimidin-5-yl)(4-(2-methoxyethoxy)phenyl)methanone]
